Experimental data published in patent publication US12139481B2, “Compositions comprising macrocycle derivatives incorporating bridged macrocycles and methods of producing and using same” (Southwestern Oklahoma State University, priority 2015, dated 2024).

Experiments:
[1] = tested on: Cryptococcus neoformans ATCC 90113; test: Antimicrobial microdilution assay against Cryptococcus neoformans (modified CLSI/NCCLS, optical density); format: cell-based; details: for X more potent than Amphotericin B: C. neoformans, ratio of molar IC50 to Amphotericin B; for C. neoformans IC50 / IC50: in vitro, C. neoformans ATCC 90113; for IC50: read-out: C. neoformans IC50 (mol/L)
Procedure, shortened: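 Broth microdilution (modified CLSI) in RPMI pH 6.0, samples serially diluted in 20% DMSO/saline and tested in duplicate, growth followed by OD630 before and after incubation. MFC is the lowest concentration giving no growth when 5 μL from clear wells is plated on agar.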

[2] = tested on: S. mansoni newly transformed schistosomula (NTS); test: In vitro testing on Schistosoma mansoni newly transformed schistosomula (NTS), viability score; format: cell-based; details: 72 h
Method: Assays were prepared according to the laboratory SOP for the lab of Dr. Jennifer Keiser (Swiss Tropical and Public Health Institute, Basel). Harvested S. mansoni cercariae (Liberian strain) obtained from infected Biomphalaria glabrata snails were mechanically transformed into newly transformed schistosomula (NTS) following standard procedures. Briefly, snails were placed under light in the morning to stimulate cercarial shedding. The cercarial suspension was collected, cooled for 30 minutes, and then vigorously pipetted (30×) and vortexed (3 minutes). The suspension was then placed in the incubator (37° C. and 5% CO2) for 30 minutes, and the vortexing and pipetting steps were repeated. The transformation was complete at this point, and the tails were separated from the heads by rinsing three times with cold HBSS. NTS were then incubated overnight in culture medium overnight and used the next day.
The original stock compounds (which were not already dissolved) were dissolved in dimethyl sulfoxide (DMSO) to a concentration of 10 mM. 100 NTS were placed in each well of a 96-well plate with culture medium, and the test compound for a final well volume of 250 μl. […] NTS incubated with no more than 1% DMSO served as control. NTS were kept in an incubator at 37° C. and 5% CO2 for up to 72 hours. After 72 hours, the condition of the NTS was microscopically evaluated using a scale from 3 (normal activity and no tegument alteration) to 0 (dead, completely granulated).

[3] = tested on: C. krusei ATCC 6258; test: Antifungal broth dilution assay against C. krusei (modified CLSI); format: cell-based, Candida krusei; details: for X more potent than Amphotericin B: C. krusei, ratio of molar IC50 to amphotericin B; for C. krusei IC50 / IC50: in vitro; for IC50: read-out: C. krusei IC50 (mol/L)
Procedure, shortened: (§1)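 Modified CLSI broth microdilution with OD monitoring before and after incubation at 35 °C: Candida in RPMI 1640/MOPS pH 6.0, 1.5×10^3 CFU/ml, 46-50 h; Staphylococcus in cation-adjusted Mueller-Hinton pH 7.3, 5.0×10^5 CFU/ml, 16-20 h. IC50 from curve fit; MIC is the lowest concentration with no growth; MFC/MBC from subculture.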

[4] = tested on: C. glabrata ATCC 90030; test: Antifungal broth dilution assay against C. glabrata (modified CLSI); format: cell-based, Candida glabrata; details: for C. glabrata IC50 / IC50: in vitro; for IC50: converted with molecular weight; for X more potent than Amphotericin B: molar IC50 ratio versus amphotericin B
Procedure, shortened: as §1

[5] = tested on: L. donovani promastigotes; test: Antileishmanial Alamar Blue assay on promastigotes; format: cell-based, Leishmania donovani; details: for X more potent than Pentamidine: L. donovani, ratio of molar IC50 to Pentamidine; for L. donovani IC50 / IC50: promastigotes, 48 hours, Alamar Blue; for IC50: read-out: L. donavani IC50
Procedure, shortened: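 L. donovani promastigotes in RPMI 1640 with 10% FCS, from 3-day culture, were set at 5×10^5/mL and exposed to compound (50-3.1 μg/mL) for 48 hours at 26° C. Growth read by Alamar Blue fluorescence (ex 544/em 590 nm); IC50 from percent growth versus concentration.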

[6] = tested on: Plasmodium falciparum W2 clone (Indochina, chloroquine-resistant); test: In vitro antimalarial assay, chloroquine-resistant W2 clone; format: cell-based; details: W2 clone; for X more potent than chloroquine: molar IC50 ratio versus chloroquine
Method: (§2) The compounds were assayed for in vitro antimalarial activity against the W2 clone and D6 clone of the pathogenic Plasmodium falciparum. The strains of P. falciparum were obtained from the Division of Experimental Therapeutics, Walter Reed Army Institute of Research, Washington D.C. Strains of Sierra Leon D6 and Indochina W2 are chloroquine-sensitive and chloroquine-resistant, respectively. The parasite was grown in type A human RBCs and, two strains subcultured daily with fresh medium and blood cells. On the day of the assay, a suspension of infected blood cells (2% parasitemia and 2% hematocrit) was prepared using type A human red blood cells. Assays were performed by standard 96-well flat-bottomed microplate methods and done in duplicate at different concentrations. IC50 values were obtained from the dose curves. Artemisinin and chloroquine were included in each assay as the drug controls, and DMSO was used as vehicle control. The whole protocol was developed based on the published method of Makler. The cytotoxicity assays were also performed in parallel against the Vero cells, and the selectivity index was measured. A selectivity index of >9 was considered to indicate a lead for further development of antimalarial drug.

[7] = tested on: Plasmodium falciparum D6 clone (Sierra Leon, chloroquine-sensitive); test: In vitro antimalarial assay, chloroquine-sensitive D6 clone; format: cell-based; details: D6 clone; for X more potent than chloroquine: molar IC50 ratio versus chloroquine
Method: as §2

[8] = tested on: Staphylococcus aureus ATCC 29213; test: Antibacterial broth dilution assay against S. aureus (modified CLSI); format: cell-based
Procedure, shortened: as §1

Row | SMILES | X more potent than Amphotericin B [1] | C. neoformans IC50 [1] | IC50 [1] | Effect at 72 h (%) ([2]; NTS S. mansoni, 33 μM) | X more potent than Amphotericin B [3] | C. krusei IC50 [3] | IC50 [3] | C. glabrata IC50 [4] | IC50 [4] | X more potent than Amphotericin B [4] | X more potent than Pentamidine [5] | L. donovani IC50 [5] | IC50 [5] | P. falciparum W2 IC50 [6] | X more potent than chloroquine [6] | P. falciparum D6 IC50 [7] | X more potent than chloroquine [7] | further results
1 | CC(=O)[O-].CC(=O)[O-].CC(=O)[O-].F[P-](F)(F)(F)(F)F.F[P-](F)(F)(F)(F)F.F[P-](F)(F)(F)(F)F.[Co+2].[Co+2].[Co+2].c1c(CN2CCNCCN3CCN(CC3)CC2)cc(CN2CCNCCN3CCN(CC3)CC2)cc1CN1CCNCCN2CCN(CC2)CC1 [CDG021, [Co3(tris-SB-Cyclens)(OAc)3][PF6]3] | 0.45 | ≤ 0.800 µg/mL | 534 nM | 11.71% | 0.53 | 4.200 µg/mL | 2800 nM | 0.800 µg/mL | 534 nM | 2.66 | – | – | – | – | – | – | – | times more potent than AMB [4]: 2.66
2 | CN1CCN2CCN(CC1)CCN(Cc1cc(CN3CCN4CCN(C)CCN(CC4)CC3)cc(CN3CCN4CCN(C)CCN(CC4)CC3)c1)CC2 [BNS017, tris-CB-cyclens] | 2.56 | 0.070 µg/mL | 93.2 nM | 0.00% | 0.19 | 5.850 µg/mL | 7790 nM | – | – | – | 0.16 | 25.46 µg/mL | 33900 nM | – | – | – | – | –
3 | c1ccc(CN2CCN3CCN(CC2)CCN(Cc2ccccc2)CC3)cc1 [ANC14, Bn2Bcyclen] | – | – | – | 43.24% | – | – | – | – | – | – | 0.53 | 3.80 µg/mL | 10000 nM | 0.7602 µg/mL | 0.34 | 0.5110 µg/mL | 0.03 | IC50 ([6]; converted with molecular weight, read-out: P. falciparum W2 IC50): 2010 nM; IC50 ([7]; converted with molecular weight, read-out: P. falciparum D6 IC50): 1350 nM
4 | CC(=O)[O-].F[P-](F)(F)(F)(F)F.[Zn+2].c1ccc(CN2CCCN3CCN(CCCN(Cc4ccccc4)CC3)CC2)cc1 [RM41, [Zn(Bn2Bcyclam)(OAc)]PF6] | – | – | – | 100.00% | – | – | – | – | – | – | 0.38 | 9.51 µg/mL | – | 0.4010 µg/mL | 1.14 | 0.2315 µg/mL | 0.11 | Effect at 72 h (%) ([2]; NTS S. mansoni at 10 μM): 17.24%
5 | CC(=O)[O-].CC(=O)[O-].CN1CCCN2CCN(CCCN(Cc3ccc(CN4CCCN5CCN(C)CCCN(CC5)CC4)cc3)CC2)CC1.F[P-](F)(F)(F)(F)F.F[P-](F)(F)(F)(F)F.[Ni+2].[Ni+2] [KS33, [Ni2(p-CB-cyclams)(OAc)2](PF6)2] | 0.26 | 1.020 µg/mL | 920 nM | 0.00% | – | – | – | – | – | – | – | – | – | – | – | – | – | S. aureus IC50 ([8]; in vitro): 8.490 µg/mL; IC50 ([8]; in vitro, converted with molecular weight): 7660 nM; X more potent than ciprofloxacen ([8]; molar IC50 ratio versus ciprofloxacen): 0.04
6 | CC(=O)[O-].CC(=O)[O-].CN1CCCN2CCN(CCCN(Cc3ccc(CN4CCCN5CCN(C)CCCN(CC5)CC4)cc3)CC2)CC1.F[P-](F)(F)(F)(F)F.F[P-](F)(F)(F)(F)F.[Cu+2].[Cu+2] [TJH384A, [Cu2(p-CB-cyclams)(OAc)2](PF6)2] | 0.38 | 0.700 µg/mL | 626 nM | 5.41% | 0.25 | 6.760 µg/mL | 6050 nM | 14.590 µg/mL | 13000 nM | 0.11 | – | – | – | – | – | – | – | –
